Experimental data as given in patent US20150079176A1, “ANTI-OXIDANT SYNERGY FORMULATION NANOEMULSIONS TO TREAT CANCER” (University of Massachusetts Lowell, priority 2005, published 2015).

Legend:
[1] = test system: HTB-20; assay: HTB-20 cell culture growth (Coulter Counter cell counting); type: cell-based, Human
Experimental: (§1) Human breast cancer cell lines MCF-7 and HTB-20 were subcultured in flasks accompanied by daily changes of medium comprising RPMI 1640 supplemented with fetal bovine serum (10%, v/v). The cultures were maintained in a humidified chamber at 37° C. with 5% CO2 and 95% air. The cells were harvested at confluency by trypsinzation and suspended at a cell density of 200,000 to 300,000 cells/ml in a small volume of the growth medium to be used.
(§2) In a typical experiment in which the effects of the anti-cancer nanoemulsions on cell growth were to be examined, aliquots of the cell suspension containing about 20,000 to 30,000 cells were replicately plated in dishes containing 3 ml of the growth medium consisting of RPMI 1640 supplemented with charcoal-stripped fetal bovine serum (5%, v/v) and of penicillin-streptomycin (10 units and 10 μg, respectively) and mycostatin (2.5 units/ml) and incubated at 37° C. in the humidified chamber. On day 1 when the cell adhered firmly to the bottom surface of the dishes, the medium was aspirated off and the cells then challenged by the anti-cancer nanoemulsions; groups of replicate dishes received 3 ml of fresh growth medium containing either ASF or tamoxifen at the indicated concentrations. The control groups received only the microfluidized nanoemulsion and ASF or tamoxifen in free solution.
(§3) At various time intervals (i.e., Days 1-17), triplicate dishes were withdrawn for cell counting; after removal of the medium by aspiration, the adhered cells were washed twice with 1 ml of Eagles balanced salt solution without Ca^2+ and Mg^2+ and dislodged from the dish by trypsinization involving the incubation of 0.5 ml of trypsin-EDTA solution (IX) for 5 minutes at 37° C., after which the protease reaction was stopped by adding 2.5 ml of a “stop” medium consisting of RPMI 1640 and 5% fetal calf serum. The cells were then collected by centrifugation with subsequent suspension in the medium. An aliquot of the suspension was subjected to cell counting using a Coulter Counter (data expressed as 10^6 cells per dish).

[2] = test system: MCF-7; assay: MCF-7 cell culture growth (Coulter Counter cell counting); type: cell-based, Human
Experimental: as §1, §2, §3

Compound: CC/C(=C(\c1ccccc1)c1ccc(OCCN(C)C)cc1)c1ccccc1 [Tamoxifen In Free Solution, tamoxifen]
- cell count ([1]; HTB-20, 1 day of incubation): 4 106 cells per dish
- cell count ([1]; HTB-20, 3 days of incubation): 12 106 cells per dish
- cell count ([1]; HTB-20, 5 days of incubation): 24 106 cells per dish
- cell count ([1]; HTB-20, 7 days of incubation): 28 106 cells per dish
- cell count ([1]; HTB-20, 10 days of incubation): 41 106 cells per dish
- cell count ([1]; HTB-20, 12 days of incubation): 51 106 cells per dish
- improvement of time-course of tamoxifen-induced apoptosis ([1]; HTB-20, applied as a microfluidized nanoemulsion vs free solution): 2-10 fold
- cell count ([2]; MCF-7, 5 days of incubation): 5 106 cells per dish
- cell count ([2]; MCF-7, 8 days of incubation): 19 106 cells per dish
- cell count ([2]; MCF-7, 10 days of incubation): 25 106 cells per dish
- cell count ([2]; MCF-7, 12 days of incubation): 33 106 cells per dish
- cell count ([2]; MCF-7, 15 days of incubation): 50 106 cells per dish
- cell count ([2]; MCF-7, 17 days of incubation): 67.5 106 cells per dish
- improvement of time-course of tamoxifen-induced apoptosis ([2]; MCF-7, applied as a microfluidized nanoemulsion vs free solution): 2-10 fold
